Among the data in BindingDB's records for doi:10.1111/j.1747-0285.2009.00833.x (Bayer Healthcare, 2009) are IC50 values, retold here.

The experiment has as its target Heat shock protein HSP 90-alpha (Homo sapiens, UniProt P07900). In words: Competition Assay. Particulars: pH 7.4. The source says: To assess the affinity of compounds binding to Hsp90, we measured their ability to compete with the binding of a fluorescent analog of GA (GM-Bodipy) to Hsp90 using fluoresence polarization.

Regarding `Oc1ccc(-c2nnc(S)n2-c2cccc3ccccc23)c(O)c1` [Resorcinol analog, 1], the IC50 was 300 pM. Molecule `CCOC(=O)NCc1ccc(-n2c(-c3ccc(O)cc3O)n[nH]c2=S)cc1` [Ethyl carbamate analog, 3] came in with an IC50 of 100 pM. The figure for `CCOC(=O)NCc1ccc(-n2c(-c3cc(C(C)C)c(O)cc3O)n[nH]c2=S)cc1` [BX-2819] is 40 pM; for `CC(C)c1cc(-c2n[nH]c(=S)n2-c2cccc3ccccc23)c(O)cc1O` [lspropyl analog, 5] it is 100 pM. Then `Oc1ccc(-c2nnc(S)n2-c2ccccc2)c(O)c1` [Unsubstituted phenyl ring analog, 2], with 500 pM.

`CCc1cc(-c2nnc(S)n2-c2cccc3ccccc23)c(O)cc1O` [Ethyl analog, 4] gave an IC50 of 200 pM.
